Data on 43 molecules can be found in article PMC12463105, “NSP7 Molecular Degrader Attenuates Coronaviral Infection Through the β‐TrCP1/FBXO5 Axis” (Advanced Science, 2025).

The structures appear in SMILES notation.

In one assay the test system is SARS-CoV-2 NSP7-HiBiT. Conditions: read-out: NSP7- HiBiT; reduction of NSP7-HiBiT signal; degrader. For orientation: With HiBiT, luminescence reflects the tagged protein that the partner subunit can reach.
Another assay relates to T1, HCoV-OC43.
T1 construct: ATCC VR-1558
Put plainly: microbe, parasite or virus in culture. Details: HCoV-OC43 infection assay, reduction of viral infection. Conditions: Betacoronavirus 1, OC43, read-out: OC43.

Consider `CCSc1nsc(NC(=O)Nc2ccccc2OC)n1` [BC24840, 3-(ethylthio)-5-[3-(o-methoxyphenyl)ureido]-1,2,4-thiadiazole], for which the IC50 is > 100 µM in the assay with SARS-CoV-2 NSP7-HiBiT and 11.5 µM in the assay on HCoV-OC43.
The matching figures for `CCSc1nsc(NC(=O)Nc2cccc(OC)c2)n1` [BC24841, 3-(ethylthio)-5-[3-(m-methoxyphenyl)ureido]-1,2,4-thiadiazole]: 12.3 µM and 5.5 µM.
`CCSc1nsc(NC(=O)Nc2cccc(Cl)c2)n1` [BC24842, 5-[3-(m-chlorophenyl)ureido]-3-(ethylthio)-1,2,4-thiadiazole]: the IC50 in the assay on SARS-CoV-2 NSP7-HiBiT was 2.15 µM; in the assay on HCoV-OC43, 1.56 µM.
`CCSc1nsc(NC(=O)Nc2ccccc2Cl)n1` [BC24843, 5-[3-(o-chlorophenyl)ureido]-3-(ethylthio)-1,2,4-thiadiazole]: the IC50 in the assay with SARS-CoV-2 NSP7-HiBiT was 26.2 µM; with HCoV-OC43 it was 16.2 µM.
Regarding `CCSc1nsc(NC(=O)Nc2ccccc2)n1` [BC24844, 3-(ethylthio)-5-(3-phenylureido)-1,2,4-thiadiazole], the results for the IC50 with SARS-CoV-2 NSP7-HiBiT and with HCoV-OC43 were 9.37 µM and 9.06 µM, respectively.
For the molecule `CCSc1nsc(NC(=O)Nc2ccccc2[N+](=O)[O-])n1` [BC24846, 3-(ethylthio)-5-[3-(o-nitrophenyl)ureido]-1,2,4-thiadiazole], the values for the IC50 in the assay on SARS-CoV-2 NSP7-HiBiT and with HCoV-OC43 were 24.3 µM and 11.4 µM, respectively.
Turning to `CCSc1nsc(NC(=O)Nc2cccc(C)c2C)n1` [BC24847, 3-(ethylthio)-5-[3-(2,3-xylyl)ureido]-1,2,4-thiadiazole], the IC50 with SARS-CoV-2 NSP7-HiBiT came out at 65.8 µM; in the assay on HCoV-OC43, 9.14 µM.
For `CCSc1nsc(NC(=O)Nc2ccc(C)c(C)c2)n1` [BC24848, 3-(ethylthio)-5-[3-(3,4-xylyl)ureido]-1,2,4-thiadiazole], the IC50 is 15.5 µM with SARS-CoV-2 NSP7-HiBiT and 7.05 µM in the assay with HCoV-OC43.
For the molecule `CCSc1nsc(NC(=O)Nc2cc(C)ccc2C)n1` [BC24849, 3-(ethylthio)-5-[3-(2,5-xylyl)ureido]-1,2,4-thiadiazole], the IC50 worked out at 12.8 µM in the assay with SARS-CoV-2 NSP7-HiBiT and 5.35 µM with HCoV-OC43.
For `CCSc1nsc(NC(=O)Nc2cc(F)cc(F)c2)n1` [BC24850, 5-[3-(3,5-difluorophenyl)ureido]-3-(ethylthio)-1,2,4-thiadiazole], the IC50 came out at 2.96 µM in the assay with SARS-CoV-2 NSP7-HiBiT and 1.22 µM with HCoV-OC43.
The matching figures for `CCSc1nsc(NC(=O)Nc2ccc(C)cc2Cl)n1` [BC24851, 5-[3-(2-chloro-4-tolyl)ureido]-3-(ethylthio)-1,2,4-thiadiazole]: > 100 µM and 17.4 µM.
Take `CCSc1nsc(NC(=O)Nc2ccc(Cl)c(C(F)(F)F)c2)n1` [BC24852, 5-{3-[4-chloro-3-(trifluoromethyl)phenyl]ureido}-3-(ethylthio)-1,2,4-thiadiazole]: the IC50 in the assay with SARS-CoV-2 NSP7-HiBiT is 2.76 µM; in the assay with HCoV-OC43 it was 0.907 µM.
On to `CCSc1nsc(NC(=O)Nc2cc(OC)ccc2OC)n1` [BC24853, 5-[3-(2,5-dimethoxyphenyl)ureido]-3-(ethylthio)-1,2,4-thiadiazole], for which the IC50 with SARS-CoV-2 NSP7-HiBiT is > 100 µM; with HCoV-OC43 it was 9.87 µM.
The matching figures for `CCSc1nsc(NC(=O)Nc2ccc(C)cc2)n1` [BC24854, 3-(ethylthio)-5-[3-(p-tolyl)ureido]-1,2,4-thiadiazole]: 45.1 µM and 26.6 µM.
For the molecule `CCSc1nsc(NC(=O)Nc2ccccc2C)n1` [BC24855, 3-(ethylthio)-5-[3-(o-tolyl)ureido]-1,2,4-thiadiazole], the IC50 came to 35.2 µM with SARS-CoV-2 NSP7-HiBiT and 8.23 µM in the assay with HCoV-OC43.
The matching figures for `CCSc1nsc(NC(=O)Nc2ccc(F)c(Cl)c2)n1` [BC24856, 5-[3-(3-chloro-4-fluorophenyl)ureido]-3-(ethylthio)-1,2,4-thiadiazole]: 11.8 µM and 1.41 µM.
Regarding `CCSc1nsc(NC(=O)Nc2ccc(OC)cc2)n1` [BC24857, 3-(ethylthio)-5-[3-(p-methoxyphenyl)ureido]-1,2,4-thiadiazole], the IC50 in the assay on SARS-CoV-2 NSP7-HiBiT was > 100 µM; in the assay on HCoV-OC43, 88.8 µM.
In the case of `CCOc1ccccc1NC(=O)Nc1nc(SCC)ns1` [BC24858, 5-[3-(o-ethoxyphenyl)ureido]-3-(ethylthio)-1,2,4-thiadiazole], the IC50 with SARS-CoV-2 NSP7-HiBiT is > 100 µM; with HCoV-OC43, 24.3 µM.
`CCOc1ccc(NC(=O)Nc2nc(SCC)ns2)cc1` [BC24859, 5-[3-(p-ethoxyphenyl)ureido]-3-(ethylthio)-1,2,4-thiadiazole]: the values for the IC50 with SARS-CoV-2 NSP7-HiBiT and in the assay on HCoV-OC43 were > 100 µM and 52.1 µM, respectively.
The matching figures for `CCSc1nsc(NC(=O)Nc2cccc(Br)c2)n1` [BC24860, 5-[3-(m-bromophenyl)ureido]-3-(ethylthio)-1,2,4-thiadiazole]: 1.18 µM and 1.18 µM.
The matching figures for `CCSc1nsc(NC(=O)Nc2cccc(Cl)c2C)n1` [BC24862, 5-[3-(3-chloro-2-tolyl)ureido]-3-(ethylthio)-1,2,4-thiadiazole]: 7 µM and 5.68 µM.
Consider `CCSc1nsc(NC(=O)Nc2cccc(C)c2)n1` [BC24863, 3-(ethylthio)-5-[3-(m-tolyl)ureido]-1,2,4-thiadiazole], for which the IC50 in the assay on SARS-CoV-2 NSP7-HiBiT stood at 5.09 µM; in the assay with HCoV-OC43 it was 2.03 µM.
For the molecule `CCSc1nsc(NC(=O)Nc2ccccc2CC)n1` [BC24864, 5-[3-(o-ethylphenyl)ureido]-3-(ethylthio)-1,2,4-thiadiazole], the IC50 with SARS-CoV-2 NSP7-HiBiT worked out at 47.4 µM; with HCoV-OC43 it was 63.8 µM.
As to `CCOC(=O)Cc1ccc(NC(=O)Nc2nc(SCC)ns2)cc1` [BC24865, ethyl (p-{3-[3-(ethylthio)-1,2,4-thiadiazol-5-yl]ureido}phenyl)acetate], the IC50 with SARS-CoV-2 NSP7-HiBiT worked out at 27.8 µM; in the assay with HCoV-OC43 it was 10.7 µM.
On to `CCSc1nsc(NC(=O)Nc2ccccc2C(F)(F)F)n1` [BC24866, 3-(ethylthio)-5-{3-[o-(trifluoromethyl)phenyl]ureido}-1,2,4-thiadiazole], for which the IC50 came to 18.5 µM in the assay on SARS-CoV-2 NSP7-HiBiT and 12.4 µM in the assay on HCoV-OC43.
Take `CCSc1nsc(NC(=O)Nc2ccc(C)cc2C)n1` [BC24867, 3-(ethylthio)-5-[3-(2,4-xylyl)ureido]-1,2,4-thiadiazole]: the IC50 in the assay on SARS-CoV-2 NSP7-HiBiT was > 100 µM; with HCoV-OC43 it was 13 µM.
On to `CCOC(=O)CNC(=O)Nc1nc(SCC)ns1` [BC24868, ethyl {3-[3-(ethylthio)-1,2,4-thiadiazol-5-yl]ureido}acetate], for which the IC50 with SARS-CoV-2 NSP7-HiBiT and with HCoV-OC43 was > 100 µM in each case.
As for `CCSc1nsc(NC(=O)NCCCOC)n1` [BC24869, 3-(ethylthio)-5-[3-(3-methoxypropyl)ureido]-1,2,4-thiadiazole], the IC50 in the assay on SARS-CoV-2 NSP7-HiBiT is > 100 µM; in the assay on HCoV-OC43 it was 56.7 µM.
Take `CCSc1nsc(NC(=O)Nc2ccc(F)cc2)n1` [BC24870, 3-(ethylthio)-5-[3-(p-fluorophenyl)ureido]-1,2,4-thiadiazole]: the results for the IC50 in the assay with SARS-CoV-2 NSP7-HiBiT and with HCoV-OC43 were 17 µM and 10.1 µM, respectively.
Consider `CCOC(=O)C[C@H](NC(=O)Nc1nc(SCC)ns1)c1ccccc1` [BC24871, ethyl (S)-3-{3-[3-(ethylthio)-1,2,4-thiadiazol-5-yl]ureido}-3-phenylpropionate], for which the values for the IC50 with SARS-CoV-2 NSP7-HiBiT and in the assay with HCoV-OC43 were > 100 µM and 23.1 µM, respectively.
With `CCSc1nsc(NC(=O)NC2CCCC2)n1` [BC24872, 5-(3-cyclopentylureido)-3-(ethylthio)-1,2,4-thiadiazole], the IC50 was > 100 µM in the assay on SARS-CoV-2 NSP7-HiBiT and 30.9 µM with HCoV-OC43.
Regarding `CCSc1nsc(NC(=O)Nc2ccc(C)c(F)c2)n1` [BC24873, 3-(ethylthio)-5-[3-(3-fluoro-4-tolyl)ureido]-1,2,4-thiadiazole], the values for the IC50 in the assay on SARS-CoV-2 NSP7-HiBiT and in the assay on HCoV-OC43 were 8.51 µM and 7.74 µM, respectively.
`CCSc1nsc(NC(=O)NCCC(=O)OC)n1` [BC24874, methyl 3-{3-[3-(ethylthio)-1,2,4-thiadiazol-5-yl]ureido}propionate]: the IC50 in the assay on SARS-CoV-2 NSP7-HiBiT is > 100 µM; in the assay on HCoV-OC43, 84.2 µM.
With `CCOCCCNC(=O)Nc1nc(SCC)ns1` [BC24875, 5-[3-(3-ethoxypropyl)ureido]-3-(ethylthio)-1,2,4-thiadiazole], the IC50 in the assay on SARS-CoV-2 NSP7-HiBiT and with HCoV-OC43 was > 100 µM each time.
For the molecule `CCSc1nsc(NC(=O)Nc2cc(F)ccc2F)n1` [BC24876, 5-[3-(2,5-difluorophenyl)ureido]-3-(ethylthio)-1,2,4-thiadiazole], the figures for the IC50 in the assay with SARS-CoV-2 NSP7-HiBiT and in the assay with HCoV-OC43 were 19.4 µM and 5.5 µM, respectively.
On to `CCSc1nsc(NC(=O)Nc2cccc(C(F)(F)F)c2)n1` [BC24877], for which the IC50 came out at 0.9 µM in the assay with SARS-CoV-2 NSP7-HiBiT and 0.733 µM with HCoV-OC43.
On to `CCSc1nsc(NC(=O)Nc2ccc(Br)c(C)c2)n1` [BC24878, 5-[3-(4-bromo-3-tolyl)ureido]-3-(ethylthio)-1,2,4-thiadiazole], for which the IC50 in the assay on SARS-CoV-2 NSP7-HiBiT stood at 3.8 µM; with HCoV-OC43, 2.55 µM.
Consider `CCSc1nsc(NC(=O)NCc2ccc(C)cc2)n1` [BC24879, 3-(ethylthio)-5-{3-[(p-tolyl)methyl]ureido}-1,2,4-thiadiazole], for which the IC50 with SARS-CoV-2 NSP7-HiBiT came out at 27.6 µM; in the assay with HCoV-OC43, 13.3 µM.
`CCSc1nsc(NC(=O)Nc2ccc3c(c2)OCCO3)n1` [BC24880, 5-[3-(2,3-dihydro-1,4-benzodioxin-6-yl)ureido]-3-(ethylthio)-1,2,4-thiadiazole]: the IC50 with SARS-CoV-2 NSP7-HiBiT worked out at 33.1 µM; in the assay with HCoV-OC43, 21.2 µM.
For `CCSc1nsc(NC(=O)NCCc2ccccc2)n1` [BC24881, 3-(ethylthio)-5-(3-phenethylureido)-1,2,4-thiadiazole], the IC50 was found to be 30 µM in the assay on SARS-CoV-2 NSP7-HiBiT and 31.9 µM with HCoV-OC43.
On the same counts, the results for `CCSc1nsc(NC(=O)NCc2cccc(OC)c2)n1` [BC24883, 3-(ethylthio)-5-{3-[(m-methoxyphenyl)methyl]ureido}-1,2,4-thiadiazole] are > 100 µM and 67.8 µM.
The matching figures for `CCSc1nsc(NC(=O)Nc2ccc(F)cc2F)n1` [BC24884, 5-[3-(2,4-difluorophenyl)ureido]-3-(ethylthio)-1,2,4-thiadiazole]: 27.6 µM and 16.9 µM.
For `CCSc1nsc(NC(=O)NCc2ccco2)n1` [BC24885, 3-(ethylthio)-5-(3-furfurylureido)-1,2,4-thiadiazole], the IC50 in the assay with SARS-CoV-2 NSP7-HiBiT and in the assay on HCoV-OC43 was > 100 µM each time.
